Entries after “also recorded” stand apart in the source; their conditions may differ.
Columns and labels:
[1] = Photostability test (4500 ± 500 Lx); assay type: physicochemical; conditions: for Appearance / Content / Related substance: 4500 ± 500lx
Source text: (§1) The conditions and methods of related substance test involved in this invention was in accordance with HPLC (Appendix VD of Chinese Pharmacopoeia, Vol. II, (2005)).
(§2) Chromatographic conditions and system applicability:
(§3) octadecylsilane bonded silica as the filler; 0.05 mol/L of potassium dihydrogen phosphate (adjusted to pH 2.5 by phosphoric acid)-methanol (45:55) as the mobile phase; detection wavelength was 230 nm; the number of theoretical plates should be not less than 2000, calculated according to the peak area of Dasatinib. The resolution of the peak of Dasatinib from the peaks of adjacent impurities should meet requirements.
(§4) Test Method: the sample was weight and dissolved into mobile phase to be the solution containing 0.5 mg per mL, and 20 μL of this solution was taken and injected into liquid chromatography. Chromatogram was recorded until it is 6 times as the retention time of the main peak.
(§5) The Polymorph I of Dasatinib monohydrate was distributed homogeneously in open petri dish with the thickness of the raw material not more than 5 mm, and the distance was adjusted to make illumination intensity at 4500±500 Lx. Sample was tested at the 5th and 10th day respectively and the results were contrasted with that of the Day 0. Results were listed in Tab. 2.
as §5, with “II” for “I”, “Dasatinib” for “Dasatinib monohydrate”, “7.” for “2.”

[2] = Loss and regain of crystal water (sealed with strong dehydrating agent, then air); assay type: physicochemical
[3] = Accelerated test (40° C. and 75% relative humidity); assay type: physicochemical; conditions: for Appearance / Content / Related substances: 40° C., 75% relative humidity; for Physical and chemical characteristic in accelerated test (in words): summary of six-month test
Source text: as §1, §2, §3, §4
(§6) The raw material of Polymorph I of Dasatinib was hermetically packed in plastic bags of polyethylene film and put in thermostatic and humidostatic incubator at 40±2° C. and 75±5% relative humidity for six months. Sample was tested at the end of the 1st, 2nd, 3rd and 6th month respectively and the results were contrasted with that of the zeroth month. Results were listed in Tab. 5.
as §6, with “II” for “I”, “10.” for “5.”

[4] = Stability in water compared with polymorph A of CN200580011916.6
[5] = Observation test of long-term sample storage; assay type: physicochemical
[6] = Stability of polymorph in the formulations (XRPD and relative substances after formulation); assay type: physicochemical; conditions: for Change of relative substances of bulk drug in the formulation (in words): after formulation into capsules or tablets; for Change of crystalline form after being formulated: capsules or tablets, XRPD
Source text: Stability of Polymorph in the Formulations
The XRPD patterns of capsules and tablets respectively prepared in the Example 3 and Example 4 have been tested, and compared with XRPD characteristic peaks of Polymorph I of Dasatinib prepared by the Method A in the Example 1 in the present invention, as listed in the following table:
In addition, The relative substances of capsules and tablets respectively prepared in the Example 3 and Example 4 have been tested, and compared with those of Polymorph I of Dasatinib prepared by the Method A in the Example 1 in the present invention, as listed in the following table: […]

Row | SMILES | Content ([1]; day 0) | Related substance ([1]; day 0) | Content ([1]; day 5) | Related substance ([1]; day 5) | Content ([1]; day 10) | Related substance ([1]; day 10) | Change of content in photostability test (in words) ([1]; summary of 10-day test) | Change of related substances in photostability test (in words) ([1]; summary of 10-day test) | Appearance ([3]; month 0) | Content ([3]; month 0) | Related substances ([3]; month 0) | Appearance ([3]; month 1) | Content ([3]; month 1) | Related substances ([3]; month 1) | Appearance ([3]; month 2) | Content ([3]; month 2) | Related substances ([3]; month 2) | Appearance ([3]; month 3) | Content ([3]; month 3) | Related substances ([3]; month 3) | also measured
1 | Cc1nc(Nc2ncc(C(=O)Nc3c(C)cccc3Cl)s2)cc(N2CCN(CCO)CC2)n1 [Polymorph I, N-(2-chloro-6-methylphenyl)-2-[[6-[4-(2-hydroxyethyl)-1-piperazinyl]-2-methyl-4-pyrimidyl]amino]-5-thiazolformamide] | 99.7% | 0.07% | 99.6% | 0.21% | 99.4% | 0.34% | of some drop | increased slightly | white powder | 99.7% | 0.07% | white powder | 99.6% | 0.07% | white powder | 99.6% | 0.08% | white powder | 99.6% | 0.08% | Appearance ([1]; day 0): white powder; Appearance ([1]; day 5): white powder; Appearance ([1]; day 10): white powder; Behaviour in a sealed surrounding with strong dehydrating agent ([2]; allochroic silicagel, phosphorus pentoxide etc.): lose crystal water (partly to all) step by step; Behaviour of the polymorph losing part crystal moisture in air environment ([2]; put in air environment): return to the Polymorph I with one crystal water step by step; Appearance ([3]; month 6): white powder; Content ([3]; month 6): 99.5%; Related substances ([3]; month 6): 0.09%; Physical and chemical characteristic in accelerated test (in words) [3]: relatively stable; Stability in water by comparison to polymorph A of CN200580011916.6 [4]: better stability in water; Change of content (in words) [5]: decreased slightly; Change of related substances (in words) [5]: increased slightly; Crystal transformation [5]: not found; Change of relative substances of bulk drug in the formulation (in words) [6]: didn't increase; also recorded: no significantly changes; Relative substances ([6]; bulk drug vs capsules and tablets of Examples 3 and 4): 0.07%; Change of crystalline form after being formulated [6]: no substantially change; also recorded: substantially no change
2 | Cc1nc(Nc2ncc(C(=O)Nc3c(C)cccc3Cl)s2)cc(N2CCN(CCO)CC2)n1 [Polymorph II, N-(2-chloro-6-methylphenyl)-2-[[6-[4-(2-hydroxyethyl)-1-piperazinyl]-2-methyl-4-pyrimidyl]amino]-5-thiazolformamide] | 99.8% | 0.06% | 99.6% | 0.22% | 99.3% | 0.36% | of some drop | increased slightly | white powder | 99.8% | 0.06% | white powder | 99.7% | 0.07% | white powder | 99.8% | 0.08% | white powder | 99.6% | 0.07% | Change of appearance in photostability test (in words) ([1]; summary of 10-day test): no obvious change; Appearance ([3]; month 6): white powder; Content ([3]; month 6): 99.6%; Related substances ([3]; month 6): 0.08%; Physical and chemical characteristic in accelerated test (in words) [3]: of relative stability; Stability in water by comparison to polymorph A of CN200580011916.6 [4]: better stability in water; Change of relative substances of bulk drug in the formulation (in words) [6]: didn't increase; Change of crystalline form after being formulated [6]: no substantially change

From patent publication US8884013B2, “Polymorphs of Dasatinib, preparation methods and pharmaceutical compositions thereof” (Nan Jing Cavendish Bio-Engineering Technology Co., Ltd., priority 2010, dated 2014)
